Values of other authors, collected in patent US8645075B2, “Method for predicting organ toxicity and a system thereof” (Strand Life Sciences PVT Ltd., priority 2008, dated 2014).
Read-outs that look alike come from different tables or passages of the source. Blank lines part the entries; values can stand above or below the compound they belong to.

Columns and labels:
CPT1 = target: T1, CPT1 (Homo sapiens, UniProt P50416)
T1 sequence (P50416 1-773): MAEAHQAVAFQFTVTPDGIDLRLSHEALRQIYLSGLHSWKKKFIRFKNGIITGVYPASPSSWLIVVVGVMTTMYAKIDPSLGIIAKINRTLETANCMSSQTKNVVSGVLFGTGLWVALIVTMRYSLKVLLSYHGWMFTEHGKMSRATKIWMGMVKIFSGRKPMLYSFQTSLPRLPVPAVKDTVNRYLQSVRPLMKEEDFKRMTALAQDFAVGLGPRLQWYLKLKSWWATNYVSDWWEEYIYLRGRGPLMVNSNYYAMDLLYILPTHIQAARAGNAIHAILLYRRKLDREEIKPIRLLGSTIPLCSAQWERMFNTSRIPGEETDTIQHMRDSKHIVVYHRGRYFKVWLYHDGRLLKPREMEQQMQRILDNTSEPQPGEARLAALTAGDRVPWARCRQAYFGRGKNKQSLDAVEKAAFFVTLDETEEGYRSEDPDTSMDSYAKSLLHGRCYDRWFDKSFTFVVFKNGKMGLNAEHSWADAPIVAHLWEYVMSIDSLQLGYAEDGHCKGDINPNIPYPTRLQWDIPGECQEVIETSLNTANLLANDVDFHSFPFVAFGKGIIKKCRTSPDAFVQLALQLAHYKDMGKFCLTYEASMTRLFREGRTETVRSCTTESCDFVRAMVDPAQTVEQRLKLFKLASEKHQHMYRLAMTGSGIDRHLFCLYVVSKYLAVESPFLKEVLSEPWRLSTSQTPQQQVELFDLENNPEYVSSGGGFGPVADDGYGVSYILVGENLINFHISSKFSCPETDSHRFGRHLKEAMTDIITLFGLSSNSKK

FoF1 ATPase = conditions: experimental value used for model validation

Triglyceride accumulation, Experiment (CPT1): 98%
Compound: C1CCC(C(CC2CCCCN2)C2CCCCC2)CC1 (stereo not drawn) [Perhexilline]

Compound: C=C(C)[C@]12C[C@@H](C)[C@@]34O[C@](c5ccccc5)(O[C@@H]1[C@@H]3[C@@H]1O[C@]1(CO)[C@@H](O)[C@]1(O)C(=O)C(C)=C[C@H]14)O2 [Daphnetoxin]
EC value (Energy Charge), Experiment (FoF1 ATPase): 0.52

Triglyceride accumulation, Experiment (CPT1; experimental value used for model validation): 150%
Compound: CCCCc1oc2ccccc2c1C(=O)c1cc(I)c(OCCN(CC)CC)c(I)c1 [Amiodarone]
